Test results published in patent US7632813B2, “Bone densifying agent characterized by use of cathepsin K inhibitor with PTH” (Ono Pharmaceutical Co., Ltd., priority 2004, dated 2009).
Where no end group is shown, it is not given here.

Legend:
Assay type in all cases: in vivo
[1] = system: ovariectomized rat osteoporosis model (OVX); experiment: Experiment 1: serum osteocalcin (OC) concentration, bone formation marker, in OVX rats; conditions: for serum OC concentration (bone formation marker) at intermediate autopsy: Experiment 1, FIG. 2, repeated oral administration for 55 days; for serum OC concentration on the 83rd day, in combination with PTH: combination with PTH compared with PTH sole administration
From the text: (§1) For the purpose of clarifying the characteristics, the effect of a cathepsin K inhibitor (a bone resorption inhibitor) in combination with a type of PTH (a bone formation stimulator) was examined using an ovariectomized rat osteoporosis model (abbreviated as OVX hereafter). The effect of a bisphosphonate (BP) in combination with a type of PTH was also examined. The effects were compared with each other.
(§2) In the following examples, PTH (1-34) is abbreviated as PTH unless specified. 2) Test Method Experiment 1 (Administration Schedule 1): Administration in Combination with PTH After Repeated Administration of Bone Resorption Inhibitor
(§3) Female retired rats (F344/NSlc) were used. At the age of 6 months, 87 rats were assigned to OVX (ovariectomy) and the other 10 rats were assigned to sham operation.
(§4) Another 15 rats were assigned to OVX and 5 rats were assigned to sham operation, in order to these groups to an autopsy in the course.
(§5) To the group the compound was administered; a bone resorption inhibitor was administered orally from the next day of OVX over a period of 83 days.
On 55 days after OVX, the autopsy was done in autopsy group. Other groups to which the compound was administered, a bone resorption inhibitor was administered orally, and PTH or vehicle (saline containing 0.1% BSA) was administered subcutaneously, 55 days after OVX. […] The interval between the first and the second administration was 5-7 hours.
(§6) PTH was administered by subcutaneous injection from the back three times a week by a dose of 10 μg/kg from the 57th day after OVX. The drugs were administed according to the grouping of table 1.
(§7) In the group in which the compound was administered, on the 83rd day after OVX, BMD of tibia, lumbar BMD, concentration of urinary C-terminal telopeptide of type I collagen (CTX) and serum osteocalcin (OC) were measured. In the autopsy groups, concentration of urinary CTX and serum OC were measured on samples from the 55th day.
Fifty-five days after administration, in the autopsy, collected serum was used to measure the serum OC concentration with a kit for OC measurement (BIOTRAK; Osteocalcin, rat ELISA system).
(§8) In order to compare the sham group and the OVX control group, t-test (EXSAS (version 6.1), ARM SYSTEX CO., LTD.); in order to compare the effectiveness of the test compounds, Tukey test (EXSAS (version 6.1), ARM SYSTEX CO., LTD.), were used respectively. Less than 5% was assumed to be a significant difference.

[2] = system: ovariectomized rat osteoporosis model (OVX); experiment: Experiment 2 (administration schedule 2): BMD of tibia by pQCT in OVX rats; conditions: Experiment 2, FIG. 5; for BMD of the tibia on the 83rd day, each alone: 83 days from next day of OVX, sole administration
[3] = system: ovariectomized rat osteoporosis model (OVX); experiment: Experiment 1 (administration schedule 1): BMD of left proximal tibia by pQCT in OVX rats; conditions: for BMD of the left leg tibia (4 mm slice from proximal end) at intermediate autopsy: Experiment 1, FIG. 1, oral sole administration from next day of OVX, intermediate autopsy 56 days after OVX; for BMD of the left leg tibia on the 83rd day, in combination with PTH / BMD of the left leg tibia on the 83rd day, each alone: Experiment 1, FIG. 3; for BMD of the left leg tibia on the 83rd day, in combination with PTH: bone resorption inhibitor 83 days orally plus PTH 10 μg/kg s.c. from 57th day, versus PTH alone; for BMD of the left leg tibia on the 83rd day, each alone: sole administration, OVX-induced BMD loss
From the text: as §1, §2, §3, §4, §5
[…] Other groups to which the compound was administered, a bone resorption inhibitor was administered orally, and PTH or vehicle (saline containing 0.1% BSA) was administered subcutaneously, 55 days after OVX. […] The interval between the first and the second administration was 5-7 hours.
as §6, §7
The BMD was determined by measurement device of peripheral BMD (pQCT: peripheral Quantitative Computed Tomography, XCT-Research SA+Stratec Medizintechnik GmbH, version 5.40) with voxel size 0.12 mm. The BMD of the left proximal tibia (at a point 4 mm from the proximal end) was measured.
as §8

[4] = system: ovariectomized rat osteoporosis model (OVX); experiment: Experiment 2: urinary CTX concentration in OVX rats; conditions: Experiment 2, FIG. 6
[5] = system: ovariectomized rat osteoporosis model (OVX); experiment: Experiment 1: urinary CTX concentration, bone resorption marker, in OVX rats; conditions: Experiment 1, FIG. 4; for urinary CTX concentration on the 83rd day, combination administration with PTH: in combination with PTH
From the text: For the purpose of clarifying the characteristics, the effect of a cathepsin K inhibitor (a bone resorption inhibitor) in combination with a type of PTH (a bone formation stimulator) was examined using an ovariectomized rat osteoporosis model (abbreviated as OVX hereafter). The effect of a bisphosphonate (BP) in combination with a type of PTH was also examined. The effects were compared with each other. • (1) a solution of the compound (I): […] In the following examples, PTH (1-34) is abbreviated as PTH unless specified. 2) Test Method Experiment 1 (Administration Schedule 1): Administration in Combination with PTH After Repeated Administration of Bone Resorption Inhibitor Female retired rats ([…] used. At the age of 6 months, 87 rats were assigned to OVX (ovariectomy) and the other 10 rats were assigned to sham operation. To the group the compound was administered; a bone resorption inhibitor was administered orally from the next day of OVX over a period of 83 days. […] On 55 days after OVX, the autopsy was done in autopsy group. Other groups to which the compound was administered, a bone resorption inhibitor was administered orally, and PTH or vehicle (saline containing 0.1% BSA) was administered subcutaneously, 55 days after OVX. […] The interval between the first and the second administration was 5-7 hours. PTH was administered by subcutaneous injection from the back three times a week by a dose of 10 μg/kg from the 57th day after OVX. The drugs were administed according to the grouping of table 1. In the group in which the compound was administered, on the 83rd day after OVX, BMD of tibia, lumbar BMD, concentration of urinary C-terminal telopeptide of type I collagen (CTX) and serum osteocalcin (OC) were measured. In the autopsy groups, concentration of urinary CTX and serum OC were measured on samples from the 55th day. Urine was collected before the day of an autopsy, and urinary CTX was measured with a kit for rat CTX measurement (RatLaps ELISA; nordicbioscience). In measurement of absorbance, microplate reader (SPECTRA MAX 250, Japan Molecular Devices Inc.) was used. […] In order to compare the sham group and the OVX control group, […] CO., LTD.); in order to compare the effectiveness of the test compounds, Tukey test ([…] CO., LTD.), were used respectively. Less than 5% was assumed to be a significant difference.

| Molecule | serum OC concentration (bone formation marker) at intermediate autopsy [1] | serum OC concentration on the 83rd day, in combination with PTH ([1]; Experiment 1, FIG. 4) | BMD of the tibia on the 83rd day, each alone [2] | effect on increase of BMD of tibia in combination with PTH ([2]; 83 days in combination with PTH 3 μg/kg s.c.) | BMD of the left leg tibia (4 mm slice from proximal end) at intermediate autopsy [3] | BMD of the left leg tibia on the 83rd day, in combination with PTH [3] | BMD of the left leg tibia on the 83rd day, each alone [3] | urinary CTX concentration (bone resorption marker) on the 83rd day, combination administration ([4]; in combination with PTH) | urinary CTX concentration (bone resorption marker) on the 83rd day, sole administration ([4]; sole administration group) | urinary CTX concentration on the 83rd day, combination administration with PTH [5] | urinary CTX concentration on the 83rd day, sole administration [5] | serum OC concentration on the 83rd day, PTH sole administration ([1]; Experiment 1, FIG. 4, PTH 10 μg/kg s.c.) | inhibitory effect on urinary CTX compared with compound (I) [4] | urinary CTX inhibitory effect compared with compound (I) ([5]; sole and combination administration with PTH) |
| --- | --- | --- | --- | --- | --- | --- | --- | --- | --- | --- | --- | --- | --- | --- |
| CN1CCS/C1=N\NC(=O)C(=O)C(NC(=O)C1CCCCCC1)C1CCOCC1.Cl (stereo not drawn) [compound (I), N-{3-[(2Z)-2-(3-methyl-1,3-thiazolidin-2-ylidene)hydrazino]-2,3-dioxo-1-tetrahydro-2H-pyran-4-ylpropyl}cycloheptanecarboxamide hydrochloride] | not decreased | did not decrease the serum OC concentration significantly | inhibited the reduction of BMD of tibia caused by OVX | greater than that of ALN in combination with PTH | showed an increasing effect of BMD in the tibia | showed an additive effect in BMD of tibia | suppressed the OVX-induced BMD loss in the tibia | has an inhibitory effect on urinary CTX concentration | has an inhibitory effect on urinary CTX concentration | showed an inhibitory effect | showed an inhibitory effect |  |  |  |
| human PTH (1-34) amide (SVSEIQLMHNLGKHLNSMERVEWLRKKLQDVHNF-NH2; UniProt P01270 32-65, looked up, fragment) [partial peptide of PTH, bone formation stimulator (APC Lot.N05129A1)] |  |  | inhibited the reduction of BMD of tibia caused by OVX |  |  |  | suppressed the OVX-induced BMD loss in the tibia |  |  |  |  | increased |  |  |
| NCCCC(O)(P(=O)(O)O)P(=O)(O)O [ALN, Alendronate sodium hydrate] | decreased | significantly decreased serum OC concentration | inhibited the reduction of BMD of tibia caused by OVX |  | showed an increasing effect of BMD in the tibia | did not show any additive effect | suppressed the OVX-induced BMD loss in the tibia |  |  | showed a urinary CTX inhibitory effect | showed a urinary CTX inhibitory effect |  | weaker than that of compound (I) | weaker than that of compound (I) |
